In brackets after ≈: the same amount, converted by molar mass.
What was measured:
Format in all cases: functional
Staphylococcus aureus = experiment: Antimicrobial activity against Staphylococcus aureus ATCC 12600 for 17 to 48 hrs by MTT assay
[1] = system: Mycolicibacterium smegmatis; experiment: Antimicrobial activity against Mycobacterium smegmatis ATCC 14468 for 17 to 48 hrs by MTT assay
Bacillus subtilis = experiment: Antimicrobial activity against Bacillus subtilis ATCC 6051 for 17 to 48 hrs by MTT assay
Pseudomonas aeruginosa = experiment: Antimicrobial activity against Pseudomonas aeruginosa ATCC 9721 for 17 to 48 hrs by MTT assay
Escherichia coli = experiment: Antimicrobial activity against Escherichia coli ATCC 11775 for 17 to 48 hrs by MTT assay

With `CC[C@@H]1[C@@H](C)O[C@@](O)([C@@H](C)[C@H](O)[C@H](C)[C@H]2OC(=O)/C=C/C=C/[C@H](C)[C@@H]([C@@H](C)[C@@H](O)[C@H](C)[C@@]3(O)C[C@@H](O[C@H]4C[C@H](O)[C@H](O)[C@H](C)O4)[C@H](CC)[C@@H](C)O3)OC(=O)/C(C)=C/C=C/[C@@H]2C)C[C@H]1O[C@H]1C[C@H](O)[C@H](O)[C@H](C)O1` the MIC (Staphylococcus aureus) was 0.78 µg/mL (≈ 0.751 µM), the MIC [1] was 6.25 µg/mL (≈ 6.01 µM) and the MIC (Bacillus subtilis) was > 100 µg/mL. For the same compound, the MIC (Pseudomonas aeruginosa) was > 100 µg/mL and the MIC (Escherichia coli) was > 100 µg/mL.
For `CC1(C)S[C@@H]2[C@H](NC(=O)[C@H](N)c3ccccc3)C(=O)N2[C@H]1C(=O)O` [AMPICILLIN], the MIC (Staphylococcus aureus) was 0.78 µg/mL (≈ 2.23 µM), the MIC [1] was > 100 µg/mL and the MIC (Bacillus subtilis) was 0.78 µg/mL (≈ 2.23 µM). The MIC (Pseudomonas aeruginosa) was 1.56 µg/mL (≈ 4.46 µM) and the MIC (Escherichia coli) was 6.25 µg/mL (≈ 17.9 µM).
For `CC[C@@H]1[C@@H](C)O[C@@](OC)([C@@H](C)[C@H](O)[C@H](C)[C@H]2OC(=O)/C=C/C=C/[C@H](C)[C@@H]([C@@H](C)[C@@H](O)[C@H](C)[C@@]3(OC)C[C@@H](O[C@H]4C[C@H](O)[C@H](O)[C@H](C)O4)[C@H](CC)[C@@H](C)O3)OC(=O)/C(C)=C/C=C/[C@@H]2C)C[C@H]1O[C@H]1C[C@H](O)[C@H](O)[C@H](C)O1`, the MIC (Staphylococcus aureus) was 1.56 µg/mL (≈ 1.46 µM), the MIC [1] was 6.25 µg/mL (≈ 5.86 µM) and the MIC (Bacillus subtilis) was > 100 µg/mL. For the same compound, the MIC (Pseudomonas aeruginosa) was > 100 µg/mL and the MIC (Escherichia coli) was > 100 µg/mL.
For `CC[C@@H]1[C@@H](C)O[C@@](OC)([C@@H](C)[C@H](O)[C@H](C)[C@H]2OC(=O)/C=C/C=C/[C@H](C)[C@@H]([C@@H](C)[C@@H](O)[C@H](C)[C@@]3(OC)C[C@@H](O[C@H]4C[C@H](O)[C@H](O)[C@H](C)O4)[C@H](CC)[C@@H](C)O3)OC(=O)/C=C/C=C/[C@@H]2C)C[C@H]1O[C@H]1C[C@H](O)[C@H](O)[C@H](C)O1`, the MIC (Staphylococcus aureus) was 1.56 µg/mL (≈ 1.48 µM), the MIC [1] was > 100 µg/mL and the MIC (Bacillus subtilis) was > 100 µg/mL. For the same compound, the MIC (Pseudomonas aeruginosa) was > 100 µg/mL and the MIC (Escherichia coli) was > 100 µg/mL.
In the case of `CC[C@@H]1[C@@H](C)O[C@@](O)([C@@H](C)[C@H](O)[C@H](C)[C@H]2OC(=O)/C=C/C=C/[C@H](C)[C@@H]([C@@H](C)[C@@H](O)[C@H](C)[C@@]3(O)C[C@@H](O[C@H]4C[C@H](O)[C@H](O)[C@H](C)O4)[C@H](CC)[C@@H](C)O3)OC(=O)/C=C/C=C/[C@@H]2C)C[C@H]1O[C@H]1C[C@H](O)[C@H](O)[C@H](C)O1`, the MIC (Staphylococcus aureus) is reported as 0.78 µg/mL (≈ 0.761 µM), the MIC [1] is reported as > 100 µg/mL and the MIC (Bacillus subtilis) is reported as > 100 µg/mL. For the same compound, the MIC (Pseudomonas aeruginosa) was > 100 µg/mL and the MIC (Escherichia coli) was > 100 µg/mL.
In the case of `CC[C@@H]1[C@@H](C)O[C@@](OC)([C@@H](C)[C@H](O)[C@H](C)[C@H]2OC(=O)/C=C/C=C/[C@H](C)[C@@H]([C@@H](C)[C@@H](O)[C@H](C)[C@@]3(O)C[C@@H](O[C@H]4C[C@H](O)[C@H](O)[C@H](C)O4)[C@H](CC)[C@@H](C)O3)OC(=O)/C=C/C=C/[C@@H]2C)C[C@H]1O[C@H]1C[C@H](O)[C@H](O)[C@H](C)O1`, the MIC (Staphylococcus aureus) is reported as 1.56 µg/mL (≈ 1.5 µM), the MIC [1] is reported as > 100 µg/mL and the MIC (Bacillus subtilis) is reported as > 100 µg/mL. The MIC (Pseudomonas aeruginosa) was > 100 µg/mL and the MIC (Escherichia coli) was > 100 µg/mL.
For `CC[C@@H]1[C@@H](C)O[C@@](OC)([C@@H](C)[C@H](O)[C@H](C)[C@H]2OC(=O)/C(C)=C/C=C/[C@H](C)[C@@H]([C@@H](C)[C@@H](O)[C@H](C)[C@@]3(OC)C[C@@H](O[C@H]4C[C@H](O)[C@H](O)[C@H](C)O4)[C@H](CC)[C@@H](C)O3)OC(=O)/C(C)=C/C=C/[C@@H]2C)C[C@H]1O[C@H]1C[C@H](O)[C@H](O)[C@H](C)O1`, the MIC (Staphylococcus aureus) was 3.13 µg/mL (≈ 2.89 µM), the MIC [1] was > 100 µg/mL and the MIC (Bacillus subtilis) was > 100 µg/mL. The MIC (Pseudomonas aeruginosa) was > 100 µg/mL and the MIC (Escherichia coli) was > 100 µg/mL.
With `CN[C@@H]1[C@@H](O[C@H]2O[C@H](CO)[C@@H](N)[C@H](O)[C@H]2O)O[C@H]2C[C@@H](N)[C@@H](O[C@H]3[C@H](O)[C@@H](O)[C@H](N)C[C@@H]3N)O[C@@H]2[C@@H]1O` the MIC [1] was 0.39 µg/mL (≈ 0.723 µM).

Source: ChEMBL document CHEMBL3739369, “Identification of Elaiophylin Skeletal Variants from the Indonesian Streptomyces sp. ICBB 9297” (2015)
